Test results published in patent US20260240847A1, “COMPOUNDS WITH ANTI-TUMOR ACTIVITY AGAINST CANCER CELLS BEARING TYROSINE KINASE INHIBITOR RESISTANT EGFR MUTATIONS” (BOARD OF REGENTS, THE UNIVERSITY OF TEXAS SYSTEM, priority 2019, published 2026).

How the values were obtained:
Assay in all cases: Ba/F3 cell viability, Cell Titer Glo
EGFR L858R/L792H = EGFR L858R/L792H (Homo sapiens, UniProt P00533, L792H/L858R); settings: read-out: IC50 Values; Ba/F3 cells expressing EGFR L858R/L792H, 72 hours
Description: (§1) The transforming capability of the mutations was then evaluated by sustained cell viability following IL-3 deprivation. Activating EGFR mutant Ba/F3 cells were then screened against EGFR TKIs. Cell viability was determined by the Cell Titer Glo assay.
(§2) Ba/F3 cells expressing acquired atypical mutations spanning exons 18-21 were treated with inhibitors for 72 hours. […] Briefly, stable Ba/F3 cell lines were generated by retroviral transduction of Ba/F3 cell line for 12 hours. […] Three days after transduction, 2 μg/ml puromycin (Invitrogen) was added to the RPMI media. Cell lines were then grown in the absence of IL-3 for two weeks and cell viability was assessed every three days using the Cell Titer Glo assay (Progema).
(§3) Briefly, 2000-3000 cells per well were plated in 384-well plates (Greiner Bio-One) in technical triplicate. Cells were treated with seven different concentrations of tyrosine kinase inhibitors or vehicle alone at a final volume of 40 μL per well. After 3 days, 11 μL of Cell Titer Glo was added to each well. Plates were shaken for 15 minutes, and bioluminescence was determined using a FLUOstar OPTIMA multi-mode micro-plate reader (BMG LABTECH). Bioluminescence values were normalized to DMSO treated cells, and normalized values were plotted in GraphPad Prism using non-linear regression fit to normalized data with a variable slope.

EGFR G719A T790M = EGFR G719A T790M (Homo sapiens, UniProt P00533, G719A/T790M); settings: read-out: IC50 Values; Ba/F3 cells expressing EGFR G719A T790M, 72 hours
Description: (§4) Cell viability was determined by the Cell Titer Glo assay.
as §3

EGFR L718V = EGFR L718V (Homo sapiens, UniProt P00533, L718V); settings: read-out: IC50 Values; Ba/F3 cells expressing EGFR L718V, 72 hours
Description: as §4
(§5) Briefly, stable Ba/F3 cell lines were generated by retroviral transduction of Ba/F3 cell line for 12 hours. […] Three days after transduction, 2 μg/ml puromycin (Invitrogen) was added to the RPMI media. Cell lines were then grown in the absence of IL-3 for two weeks and cell viability was assessed every three days using the Cell Titer Glo assay (Progema).
as §3

EGFR R776C = EGFR R776C (Homo sapiens, UniProt P00533, R776C); settings: read-out: IC50 Values; Ba/F3 cells expressing EGFR R776C, 72 hours
Description: as §4, §5, §3

EGFR L861R = EGFR L861R (Homo sapiens, UniProt P00533, L861R); settings: read-out: IC50 Values; Ba/F3 cells expressing EGFR L861R, 72 hours
Description: as §4, §5, §3

EGFR K757R = EGFR K757R (Homo sapiens, UniProt P00533, K757R); settings: read-out: IC50 Values; Ba/F3 cells expressing EGFR K757R, 72 hours
Description: as §4, §5, §3

EGFR L858R T790M L792H = EGFR L858R T790M L792H (Homo sapiens, UniProt P00533, L792H/L858R/T790M); settings: read-out: IC50 Values; Ba/F3 cells expressing EGFR L858R T790M L792H, 72 hours
Description: as §4, §5, §3

EGFR L858R/L718V = EGFR L858R/L718V (Homo sapiens, UniProt P00533, L718V/L858R); settings: read-out: IC50 Values; Ba/F3 cells expressing EGFR L858R/L718V, 72 hours
Description: as §1, §2, §3

EGFR S768I/V769L = EGFR S768I/V769L (Homo sapiens, UniProt P00533, S768I/V769L); settings: read-out: IC50 Values; Ba/F3 cells expressing EGFR S768I/V769L, 72 hours
EGFR S768I/V769L, sequence (P00533 25-1210 S768I/V769L): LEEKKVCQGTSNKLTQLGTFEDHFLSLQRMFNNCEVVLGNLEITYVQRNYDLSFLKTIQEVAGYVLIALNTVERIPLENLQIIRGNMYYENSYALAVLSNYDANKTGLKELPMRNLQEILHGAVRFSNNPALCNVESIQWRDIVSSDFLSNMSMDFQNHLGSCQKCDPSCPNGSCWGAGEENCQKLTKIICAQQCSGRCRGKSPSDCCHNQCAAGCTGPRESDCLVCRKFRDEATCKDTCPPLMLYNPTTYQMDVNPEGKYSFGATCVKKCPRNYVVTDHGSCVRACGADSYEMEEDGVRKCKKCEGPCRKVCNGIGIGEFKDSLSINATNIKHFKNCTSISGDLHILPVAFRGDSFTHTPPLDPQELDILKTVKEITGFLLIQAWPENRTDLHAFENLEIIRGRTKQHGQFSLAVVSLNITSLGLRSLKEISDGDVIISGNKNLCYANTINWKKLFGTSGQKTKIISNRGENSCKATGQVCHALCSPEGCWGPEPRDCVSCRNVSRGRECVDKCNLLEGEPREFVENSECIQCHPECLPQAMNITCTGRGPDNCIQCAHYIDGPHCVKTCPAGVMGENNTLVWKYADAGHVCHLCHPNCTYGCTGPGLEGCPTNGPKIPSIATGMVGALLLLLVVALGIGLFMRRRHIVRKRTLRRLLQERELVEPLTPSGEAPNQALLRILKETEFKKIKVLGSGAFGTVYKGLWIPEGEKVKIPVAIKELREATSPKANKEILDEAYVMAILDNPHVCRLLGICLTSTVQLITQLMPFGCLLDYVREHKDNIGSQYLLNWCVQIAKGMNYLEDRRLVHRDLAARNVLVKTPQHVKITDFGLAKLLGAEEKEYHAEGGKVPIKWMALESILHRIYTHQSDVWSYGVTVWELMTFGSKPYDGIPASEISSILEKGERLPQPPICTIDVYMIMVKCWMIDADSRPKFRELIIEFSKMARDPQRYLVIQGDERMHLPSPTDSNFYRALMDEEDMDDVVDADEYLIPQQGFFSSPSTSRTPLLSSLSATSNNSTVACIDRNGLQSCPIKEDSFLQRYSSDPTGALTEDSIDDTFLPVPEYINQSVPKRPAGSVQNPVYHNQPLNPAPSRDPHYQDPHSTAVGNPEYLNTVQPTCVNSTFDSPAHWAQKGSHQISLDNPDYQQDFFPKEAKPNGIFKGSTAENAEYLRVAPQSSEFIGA
Description: as §4, §5, §3

EGFR G719A T790M, sequence (P00533 25-1210 G719A/T790M): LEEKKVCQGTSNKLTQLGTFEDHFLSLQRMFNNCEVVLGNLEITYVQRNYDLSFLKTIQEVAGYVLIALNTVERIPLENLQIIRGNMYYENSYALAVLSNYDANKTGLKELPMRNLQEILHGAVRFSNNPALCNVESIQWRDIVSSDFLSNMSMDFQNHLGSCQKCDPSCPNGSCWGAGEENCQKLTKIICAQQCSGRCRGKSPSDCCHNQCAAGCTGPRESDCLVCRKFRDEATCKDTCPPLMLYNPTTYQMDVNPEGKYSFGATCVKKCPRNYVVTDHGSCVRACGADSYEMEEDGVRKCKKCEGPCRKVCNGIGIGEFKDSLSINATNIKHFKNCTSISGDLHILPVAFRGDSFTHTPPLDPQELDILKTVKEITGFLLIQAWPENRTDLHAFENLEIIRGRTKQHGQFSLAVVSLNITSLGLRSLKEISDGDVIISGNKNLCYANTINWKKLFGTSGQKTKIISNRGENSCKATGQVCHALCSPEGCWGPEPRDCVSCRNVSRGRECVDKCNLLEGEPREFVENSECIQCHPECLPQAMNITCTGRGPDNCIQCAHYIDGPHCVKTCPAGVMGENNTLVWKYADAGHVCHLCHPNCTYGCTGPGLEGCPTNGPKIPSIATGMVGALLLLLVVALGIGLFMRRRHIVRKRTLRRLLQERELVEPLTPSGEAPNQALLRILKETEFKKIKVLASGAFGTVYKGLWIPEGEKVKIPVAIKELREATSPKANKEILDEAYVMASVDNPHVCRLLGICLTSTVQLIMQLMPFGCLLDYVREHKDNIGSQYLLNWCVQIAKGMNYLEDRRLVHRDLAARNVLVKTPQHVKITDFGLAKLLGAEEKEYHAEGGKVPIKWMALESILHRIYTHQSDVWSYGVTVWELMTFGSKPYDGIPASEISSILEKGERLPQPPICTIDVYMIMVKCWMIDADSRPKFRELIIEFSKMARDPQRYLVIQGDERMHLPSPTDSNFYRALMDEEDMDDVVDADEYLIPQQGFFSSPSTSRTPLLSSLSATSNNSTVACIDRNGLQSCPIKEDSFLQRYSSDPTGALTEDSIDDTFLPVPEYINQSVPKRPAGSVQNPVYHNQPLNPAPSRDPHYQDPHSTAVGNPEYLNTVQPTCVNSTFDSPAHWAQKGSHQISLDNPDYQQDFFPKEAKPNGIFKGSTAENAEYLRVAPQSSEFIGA
EGFR L861R, sequence (P00533 25-1210 L861R): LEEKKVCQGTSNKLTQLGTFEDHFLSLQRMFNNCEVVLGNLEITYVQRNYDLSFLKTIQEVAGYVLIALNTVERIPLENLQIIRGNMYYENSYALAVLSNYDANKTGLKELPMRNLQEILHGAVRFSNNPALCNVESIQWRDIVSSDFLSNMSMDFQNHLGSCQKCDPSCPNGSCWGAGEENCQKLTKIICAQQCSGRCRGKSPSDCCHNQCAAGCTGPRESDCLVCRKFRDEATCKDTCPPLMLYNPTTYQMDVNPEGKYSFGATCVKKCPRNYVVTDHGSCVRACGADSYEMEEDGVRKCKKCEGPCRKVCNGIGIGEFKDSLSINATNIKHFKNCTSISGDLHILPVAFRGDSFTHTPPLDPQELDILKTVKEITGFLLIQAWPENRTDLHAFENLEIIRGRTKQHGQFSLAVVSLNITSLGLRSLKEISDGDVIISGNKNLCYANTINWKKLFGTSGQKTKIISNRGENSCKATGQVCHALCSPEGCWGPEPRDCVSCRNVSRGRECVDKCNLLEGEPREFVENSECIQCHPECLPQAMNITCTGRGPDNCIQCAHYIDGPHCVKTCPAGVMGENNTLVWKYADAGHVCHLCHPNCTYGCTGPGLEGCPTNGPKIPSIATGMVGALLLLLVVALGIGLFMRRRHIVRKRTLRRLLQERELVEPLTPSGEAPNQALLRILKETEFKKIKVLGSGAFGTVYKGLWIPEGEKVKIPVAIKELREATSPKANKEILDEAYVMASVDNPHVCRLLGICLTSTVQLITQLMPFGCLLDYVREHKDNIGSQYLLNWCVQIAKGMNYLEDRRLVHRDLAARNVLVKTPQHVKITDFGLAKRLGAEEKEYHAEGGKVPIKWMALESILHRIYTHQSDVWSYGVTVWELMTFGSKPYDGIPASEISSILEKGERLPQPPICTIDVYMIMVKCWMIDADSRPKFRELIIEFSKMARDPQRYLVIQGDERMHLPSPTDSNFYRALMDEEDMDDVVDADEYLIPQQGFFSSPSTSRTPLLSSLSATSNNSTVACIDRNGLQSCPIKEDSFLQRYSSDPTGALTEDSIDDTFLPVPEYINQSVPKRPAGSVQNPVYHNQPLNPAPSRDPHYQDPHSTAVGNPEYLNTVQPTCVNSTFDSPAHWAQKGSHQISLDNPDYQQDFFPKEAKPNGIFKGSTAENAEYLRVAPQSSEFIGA
EGFR L858R/L718V, sequence (P00533 25-1210 L718V/L858R): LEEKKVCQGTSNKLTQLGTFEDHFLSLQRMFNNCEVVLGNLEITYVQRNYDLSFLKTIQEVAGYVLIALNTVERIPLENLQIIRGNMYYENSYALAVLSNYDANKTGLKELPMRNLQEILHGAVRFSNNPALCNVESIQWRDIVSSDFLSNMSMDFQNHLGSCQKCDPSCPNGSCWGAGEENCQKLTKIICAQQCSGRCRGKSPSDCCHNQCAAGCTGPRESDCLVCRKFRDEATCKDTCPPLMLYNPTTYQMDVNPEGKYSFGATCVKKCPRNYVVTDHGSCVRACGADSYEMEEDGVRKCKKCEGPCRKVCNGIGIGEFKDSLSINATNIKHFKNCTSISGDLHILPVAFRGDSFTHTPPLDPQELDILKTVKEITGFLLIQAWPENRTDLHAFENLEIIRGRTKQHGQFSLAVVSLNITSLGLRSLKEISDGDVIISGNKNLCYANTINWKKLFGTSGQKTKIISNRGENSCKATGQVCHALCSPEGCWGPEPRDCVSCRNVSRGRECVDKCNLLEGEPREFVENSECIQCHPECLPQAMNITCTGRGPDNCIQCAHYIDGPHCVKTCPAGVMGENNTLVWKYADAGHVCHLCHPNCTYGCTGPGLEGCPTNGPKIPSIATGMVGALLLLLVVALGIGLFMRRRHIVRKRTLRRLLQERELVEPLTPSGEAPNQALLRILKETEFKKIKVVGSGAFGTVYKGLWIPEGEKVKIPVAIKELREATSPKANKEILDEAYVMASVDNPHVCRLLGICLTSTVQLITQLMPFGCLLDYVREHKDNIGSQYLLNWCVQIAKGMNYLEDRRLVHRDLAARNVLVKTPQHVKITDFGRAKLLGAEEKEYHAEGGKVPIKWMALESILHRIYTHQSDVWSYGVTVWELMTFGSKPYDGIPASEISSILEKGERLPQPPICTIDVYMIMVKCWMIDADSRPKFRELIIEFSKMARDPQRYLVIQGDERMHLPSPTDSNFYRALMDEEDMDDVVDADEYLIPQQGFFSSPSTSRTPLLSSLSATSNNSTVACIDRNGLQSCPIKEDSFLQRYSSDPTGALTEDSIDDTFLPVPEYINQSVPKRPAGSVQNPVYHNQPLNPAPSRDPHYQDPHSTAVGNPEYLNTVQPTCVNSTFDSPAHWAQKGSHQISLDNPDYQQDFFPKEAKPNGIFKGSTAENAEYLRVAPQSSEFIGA

C=CC(=O)N1CC[C@@H](Oc2nc(Nc3ccc(N4CCC(N5CCN(C)CC5)CC4)cc3)c(C(N)=O)nc2CC)C1 [Naquotinib] gave an IC50 (EGFR L858R/L792H) of 34.3 nM, an IC50 (EGFR G719A T790M) of 11.7 nM and an IC50 (EGFR L718V) of 78.4 nM. It also gave an IC50 (EGFR R776C) of 575 nM, an IC50 (EGFR L861R) of 12.2 nM and an IC50 (EGFR K757R) of 122 nM. It also gave an IC50 (EGFR L858R T790M L792H) of 624 nM, an IC50 (EGFR L858R/L718V) of 18.8 nM and an IC50 (EGFR S768I/V769L) of 234 nM.
